# Columns and labels:
# [1] = Chemical test of capture of OH• radicals (deoxyribose competition); format: biochemical; settings: rate constant of reaction of the competitor with OH•; competition with 2-deoxyribose, UV at 532 nm
# Method: A) Chemical test of capture of OH^• radicals:
# (Free Rad. Res. Comms., Vol. 14, Nos. 5-6, pp. 363-372)
# […] of buffer (30 mM Na2HPO4.7H2O, 40 mM NaCl, 0.1 mM EDTA), 125 ml of deoxyribose at 2.10^−3 mM and 125 ml of 4-times concentrated solution of radical inhibitor (final concentration from 0 to 0.5 mM) were placed in glass haemolysis tubes cooled on an ice bath. […] of FeSO4 at 10^−3 mM (in water) is added at time 0. After 15 min of incubation the reaction is stopped with 250 ml of trichloroacetic acid at 3%, to which is added 250 ml of solution of thiobarbituric acid at 1.5% (in water). The tubes are kept at 100° C. for 10 min then cooled for detection with UV at 532 nm. The linear relation A0/A=1+ks/dkr [(competitor)/(2-deoxyribose)] was used, where A0 and A denote the absorbances in the absence and in the presence of competitor, ks is the rate constant of reaction of the competitor with OH• and kdr=1.9*10^9 M^−1 sec^−1 is the rate constant of reaction of 2-deoxyribose with OH•. Thus ks is equal to the gradient of the straight line A0/A f((competitor)/(2-deoxyribose)) multiplied by kdr.
# [2] = biological target: xanthine oxidase (Homo sapiens, UniProt P47989); assay: Action of the derivatives on xanthine oxidase; format: biochemical
# Chain of xanthine oxidase (P47989 whole entry, species assumed): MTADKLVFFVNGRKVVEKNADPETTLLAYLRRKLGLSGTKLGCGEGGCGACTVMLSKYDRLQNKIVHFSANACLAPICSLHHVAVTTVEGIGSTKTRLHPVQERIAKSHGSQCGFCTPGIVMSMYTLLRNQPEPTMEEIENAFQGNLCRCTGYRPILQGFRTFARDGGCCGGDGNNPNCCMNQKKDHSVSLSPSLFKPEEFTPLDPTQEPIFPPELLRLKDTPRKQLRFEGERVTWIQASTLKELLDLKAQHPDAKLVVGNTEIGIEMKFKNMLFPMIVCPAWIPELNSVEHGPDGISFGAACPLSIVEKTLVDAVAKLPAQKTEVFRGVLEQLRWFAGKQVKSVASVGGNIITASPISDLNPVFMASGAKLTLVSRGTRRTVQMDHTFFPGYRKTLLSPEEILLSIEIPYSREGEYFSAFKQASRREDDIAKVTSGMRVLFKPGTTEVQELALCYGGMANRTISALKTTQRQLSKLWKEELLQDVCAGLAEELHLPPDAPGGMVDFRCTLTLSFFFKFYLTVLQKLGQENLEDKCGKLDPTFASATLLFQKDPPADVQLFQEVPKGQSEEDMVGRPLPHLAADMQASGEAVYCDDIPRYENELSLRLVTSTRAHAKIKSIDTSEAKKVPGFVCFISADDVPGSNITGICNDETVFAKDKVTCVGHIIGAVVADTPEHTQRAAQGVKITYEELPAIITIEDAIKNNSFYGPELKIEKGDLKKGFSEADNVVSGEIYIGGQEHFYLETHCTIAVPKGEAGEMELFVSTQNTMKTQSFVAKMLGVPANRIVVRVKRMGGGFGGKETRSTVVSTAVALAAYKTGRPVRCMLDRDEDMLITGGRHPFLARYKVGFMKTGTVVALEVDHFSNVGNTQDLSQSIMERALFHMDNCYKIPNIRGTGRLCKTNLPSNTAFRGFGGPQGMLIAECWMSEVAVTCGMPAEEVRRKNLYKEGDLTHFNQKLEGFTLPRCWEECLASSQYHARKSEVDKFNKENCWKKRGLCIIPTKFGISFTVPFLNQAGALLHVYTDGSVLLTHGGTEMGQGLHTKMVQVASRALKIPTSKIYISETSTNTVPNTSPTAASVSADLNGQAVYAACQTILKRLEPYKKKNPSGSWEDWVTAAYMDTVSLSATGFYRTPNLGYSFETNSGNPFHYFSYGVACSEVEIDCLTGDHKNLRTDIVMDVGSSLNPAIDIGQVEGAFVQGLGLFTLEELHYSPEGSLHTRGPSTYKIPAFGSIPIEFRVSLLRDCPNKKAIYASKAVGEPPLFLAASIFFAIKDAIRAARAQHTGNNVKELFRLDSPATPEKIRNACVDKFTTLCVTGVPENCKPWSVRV
# Method: Action of the derivatives on xanthine oxidase:
# (Free Radical Biology & Medicine, Vol 20, No 1, pp.35-43, 1996)
# […] of xanthine 20 mM in soda 0.1N and […] of the test product in phosphate buffer at pH 7.4 were placed in a final volume of 2 ml. Reaction is started by adding […] of solution of xanthine oxidase at 0.56 U/ml. Formation of […] is monitored by UV spectroscopy at 290 nm. Allopurinol is a reference inhibitor.
# [3] = tested on: release of free radicals induced by glutamate in the striatum; assay: In vivo intracerebral perfusion (striatum microdialysis), generation of radicals by injection of glutamate; settings: 1 mM in perfusion medium
# Description: C) tests in vivo on intracerebral perfusion and generation of radicals by injection of glutamate.
# Experimental preparation: [J. Neurosci. Methods, 72 (1997) 123-135]
# The animals used are male rats of the Wistar strain weighing 250 g. Under general anaesthesia, the animals are placed in a stereotaxic apparatus. A cannula guide is introduced by microsurgery into the striatum (coordinates A : +0.02 cm; L: −0.30 cm and H: −0.65 cm relative to the 0 point defined according to Paxinos and Watson). Three to four screws are arranged on the animal's skull and the whole is fixed with dental cement (Durelon). After a recovery period during which the animals become used to the tester, a CMA 12 microdialysis cannula is inserted in the guide in such a way that the cellophane membrane projects 2 mm into the brain tissue. All the perfusions are effected on animals that are awake. A physiological solution (NaCl: 140 mM; KCl: 5 mM; […]: 3.9 mM), to which 250 μM of Na salicylate is added extemporaneously, is injected into the system at a constant flow rate of 1 μl.min^−1. […]
# Salicylic acid present in the perfusion fluid reacts with the OH radicals released at the perfusion site, forming a compound, 2,3-dihydroxybenzoic acid (2,3-DBHA), which is specific to this reaction. This reaction product is quantified in each sample by high-performance liquid chromatography followed by Electrochemical Detection. […]
structure (smiles),measurement,setting,value
"c1cc2c(s1)CCCC2N1CCOCC1 (centres unmarked) [IC180, morpholine-4-tetrahydro-4,5,6,7-benzothiophene]",ks (10^−9M^−1 sec^−1) (±SEM),[1],3.75 ± 0.33 10^−9M^−1 sec^−1
same,inhibition at 100 µM,[2]; read-out: % inhibition 100 μM,0%
same,inhibition at 500 µM,[2]; read-out: % inhibition 500 μM,2%
same,"release of free radicals induced by glutamate (2,3-dihydroxybenzoic acid)","[3]; striatum, awake rats, 1.5 mM Na glutamate, FIG. 9",Blocking
same,toxic side effect of introduction in situ,[3]; response restored a week later,did not have a toxic side effect
